Earlier results in patent publication US5001113A, “Di- or tripeptide renin inhibitors containing lactam conformational restriction in ACHPA” (Merck & Co., Inc., priority 1990, dated 1991).
Where a SMILES comes first, the peptide text is derived from it. [ ]: non-standard residue; d: D form. The star is where a group is joined. Sta = CC(C)C[C@H](N)[C@@H](O)CC(=O)O; Isovaleryl = CC(C)CC(=O)*

System: hog renin
Conditions: after the injection of hog renin into nephrectomized rats

CC(C)CC(=O)N[C@H](C(=O)N[C@H](C(=O)N[C@@H](CC(C)C)[C@@H](O)CC(=O)N[C@@H](C)C(=O)N[C@@H](CC(C)C)[C@@H](O)CC(=O)O)C(C)C)C(C)C [pepstatin] (Isovaleryl-VV[Sta]A[Sta]-OH)
blood pressure in vivo: reduces blood pressure
